Results from publication PMC7974150, “Backbone assignment of E. coli NfsB and the effects of addition of the cofactor analogue nicotinic acid” (Biomolecular Nmr Assignments, 2021).

Molecular target: T1, E. coli nitroreductase NfsB (also called NfnB) (Escherichia coli, UniProt P38489)
T1 sequence (P38489 2-217): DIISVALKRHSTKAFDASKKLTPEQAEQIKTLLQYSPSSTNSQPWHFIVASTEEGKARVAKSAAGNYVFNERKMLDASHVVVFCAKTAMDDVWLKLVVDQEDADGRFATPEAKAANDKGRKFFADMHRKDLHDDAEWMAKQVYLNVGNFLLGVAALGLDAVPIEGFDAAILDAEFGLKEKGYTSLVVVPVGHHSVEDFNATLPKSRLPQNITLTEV
Assay: 1D 1H NMR titration, ligand proton shifts fitted to hyperbola
Type: binding
Details: read-out: Apparent Kd
Source text: 1D 1H NMR titration, ligand proton shifts fitted to hyperbola on E. coli nitroreductase NfsB (also called NfnB)

Compound O=C(O)c1cccnc1 [nicotinate] has a Kd of 1900 ± 300 µM.
